The values that follow come from US20260083864A1, “CONTRAST AGENTS FOR USE IN DIAGNOSTIC COMPUTED TOMOGRAPHY IMAGING” (Bayer Aktiengesellschaft, priority 2022, published 2026).

Data set [1] relates to freshly isolated rat hepatocytes. Briefly: Uptake into freshly isolated rat hepatocytes. To be noted: for Uptake rat hepatocytes: 100 μmol Gd/L, 10 min, 37° C., relative to RC1 (Gd-EOB-DTPA); for Inhibition Rifampicine: rat hepatocyte uptake, test item and Rifampicine 1:1, each 100 μM.
Procedure: After incubation the adherent hepatocytes were washed once with 37° C. Hepes carbonate transport buffer (500 μL/well). The test items and RC1 were prepared from stock solutions (180 to 500 mM concentration) in Hepes carbonate transport buffer at pH 7.4 to reach a final concentration of 100 μmol Gd/L. The specific uptake of the test item or RC1 into rat hepatocytes via OATP1B1 and OATP1B3 was challenged using a known OATP1B1/1B3 inhibitor (Rifampicine, Fa. Sigma R3501, test item and inhibitor 1:1 each 100 μM final concentration). The prepared rat hepatocyte plates were incubated with test solutions (500 μL/well) at 37° C. for 10 min using a thermoshaker (Fa. Grant Bio, PHMP). Triplicates were performed for each test item. After incubating the cells were washed once with cold PBS buffer (Fa. Gibco, Dulbeccos PBS (+)). After washing the intact hepatocytes were lysed by addition of 500 μL cold 0.01% Triton-X 100 in Millipore water for 1 h. […] As a reference standard RC1 is used in the same well plate. The hepatocyte uptake of the test compound is calculated relative to RC1 (resulting in the unit % of RC1).
Data set [2] is described as follows: Relaxivity measurements at 1.41 T in human plasma. It counts as physicochemical. Conditions: 37° C., normalized to Gd. The method, boiled down:
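T1 determined by inversion recovery (8 inversion-time steps) and T2 by CPMG sequence, both with relaxation delay ≥5×T1. Each relaxivity used three Gd concentrations between 0.05 and 2 mM. Relaxivities were derived from relaxation rates measured in water and plasma.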

The nature of data set [3]: Water solubility in aqueous buffer. To be noted: aqueous buffer 10 mM Tris-HCl, pH 7.4, 20° C. Here is the method: The solid compounds were added stepwise to the buffer solution. More substance is added once all the suspended material is dissolved until an equilibrium between undissolved and dissolved substance is reached. The suspension was mixed using a shaker (Heidolph Reax 2000) and treated 5 min in an ultrasound bath (Bandelin, Sonorex Super RK255H).

A further data set has as its target T1, OATP1B1 (Homo sapiens, UniProt Q9Y6L6).
T1 sequence (Q9Y6L6 1-691): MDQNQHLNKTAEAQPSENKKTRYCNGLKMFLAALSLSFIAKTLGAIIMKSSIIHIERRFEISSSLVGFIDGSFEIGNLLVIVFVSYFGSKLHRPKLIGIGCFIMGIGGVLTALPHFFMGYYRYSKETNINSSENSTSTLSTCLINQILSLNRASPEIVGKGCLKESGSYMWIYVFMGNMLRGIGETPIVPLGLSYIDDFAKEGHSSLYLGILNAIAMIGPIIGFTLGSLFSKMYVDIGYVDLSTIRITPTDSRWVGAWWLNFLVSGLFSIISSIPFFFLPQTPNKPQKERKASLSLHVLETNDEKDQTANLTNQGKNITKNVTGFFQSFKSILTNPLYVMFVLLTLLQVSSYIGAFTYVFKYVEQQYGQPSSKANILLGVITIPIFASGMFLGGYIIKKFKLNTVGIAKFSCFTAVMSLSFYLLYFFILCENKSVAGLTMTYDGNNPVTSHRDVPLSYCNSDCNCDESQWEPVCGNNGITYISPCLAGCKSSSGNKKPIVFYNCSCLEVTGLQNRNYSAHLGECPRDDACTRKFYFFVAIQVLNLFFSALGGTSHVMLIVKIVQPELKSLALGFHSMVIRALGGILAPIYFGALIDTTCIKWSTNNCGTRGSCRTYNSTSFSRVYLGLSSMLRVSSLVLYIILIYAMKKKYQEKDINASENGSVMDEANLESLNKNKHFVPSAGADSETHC
Kind of data set: Uptake into stable transfected OATP1B1 HEK 293 cells. The data set is classed as cell-based. To be noted: for Uptake into OATP1B1-HEK 293 cells: 40 min incubation, relative to RC1 (Gd-EOB-DTPA); for Inhibition Rifampicine: uptake into OATP1B1-HEK 293 cells. The method, boiled down: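 Stably transfected OATP1B1 HEK293 cells incubated 40 min without shaking with test item at 100 µM final in transport buffer, in triplicate. Cells then washed with cold PBS; gadoxetate run on the same plate as reference.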

Data set [4] is described as follows: Relaxivity measurements at 1.41 T in water. The data set is classed as physicochemical. To be noted: 37° C., normalized to Gd. The method, boiled down:
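T1 by inversion recovery and T2 by CPMG at 1.41 T (60 MHz), 37° C, relaxation delay ≥5×T1. Three Gd concentrations between 0.05 and 2 mM; relaxivities derived from measured relaxation rates in water.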

The next data set has as its target T2, OATP1B3 (Homo sapiens, UniProt Q9NPD5).
T2 sequence (Q9NPD5 1-702): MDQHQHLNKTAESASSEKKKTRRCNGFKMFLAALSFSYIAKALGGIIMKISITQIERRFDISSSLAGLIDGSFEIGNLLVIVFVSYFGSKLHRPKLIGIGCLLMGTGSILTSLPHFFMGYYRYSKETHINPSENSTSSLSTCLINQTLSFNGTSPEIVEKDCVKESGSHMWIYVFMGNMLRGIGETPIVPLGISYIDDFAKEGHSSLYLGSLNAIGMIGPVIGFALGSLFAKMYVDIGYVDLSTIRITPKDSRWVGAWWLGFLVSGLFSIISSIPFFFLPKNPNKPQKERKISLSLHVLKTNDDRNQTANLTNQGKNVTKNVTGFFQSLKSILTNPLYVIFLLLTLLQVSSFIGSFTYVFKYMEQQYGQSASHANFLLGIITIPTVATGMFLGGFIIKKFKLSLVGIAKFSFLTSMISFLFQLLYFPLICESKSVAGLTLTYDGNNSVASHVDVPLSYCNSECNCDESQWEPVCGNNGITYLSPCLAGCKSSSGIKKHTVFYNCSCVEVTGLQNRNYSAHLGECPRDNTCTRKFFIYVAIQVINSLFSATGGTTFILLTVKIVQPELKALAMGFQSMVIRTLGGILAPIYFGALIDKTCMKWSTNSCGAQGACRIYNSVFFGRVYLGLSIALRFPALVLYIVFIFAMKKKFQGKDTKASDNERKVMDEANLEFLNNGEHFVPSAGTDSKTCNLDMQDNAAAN
Kind of data set: Uptake into stable transfected OATP1B3 HEK 293 cells. The data set is classed as cell-based. To be noted: for Uptake into OATP1B3-HEK 293 cells: 40 min incubation, relative to RC1 (Gd-EOB-DTPA); for Inhibition Rifampicine: uptake into OATP1B3-HEK 293 cells. The method, boiled down: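 HEK 293 cells stably transfected with human OATP1B3 were incubated for 40 min with test items at 100 μM final in transport buffer, in triplicate, then washed with cold PBS. Gadoxetate (Gd-EOB-DTPA) served as the reference standard on the same plate.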

A short description of data set [5]: Partition coefficient (log P butanol/buffer). The data set is classed as physicochemical. Conditions: 1-butanol / 50 mM Tris-HCl, pH 7.4, room temperature.

The Solubility is how much of the substance goes into solution per volume. Low readings indicate little dissolved substance, high ones much dissolved substance.

For the compound `CCCCOc1ccc(CC(C(=O)O)N2CCN(CC(=O)[O-])CCN(CC(=O)[O-])CCN(CC(=O)[O-])CC2)cc1.[Gd+3]` (centres unmarked) [Example 14, gadolinium 2,2′,2″-{10-[2-(4-butoxyphenyl)-1-carboxyethyl]-1,4,7,10-tetraazacyclododecane-1,4,7-triyl}triacetate], in data set [1], the Uptake rat hepatocytes is recorded as 96 % of RC1 and the “Inhibition Rifampicine” value came to 98 % inhibition. Further, the r1 human plasma in data set [2] was determined as 13.3 L/mmol/s. This compound returned a Solubility in data set [3] of 5 mM. Moreover, on OATP1B1, the “Uptake into OATP1B1-HEK 293 cells” value was 856 % of RC1 and the “Inhibition Rifampicine” value is 98 % inhibition. Besides, in data set [4], the r1 water is 4.3 L/mmol/s. On OATP1B3, the “Uptake into OATP1B3-HEK 293 cells” value is reported as 69 % of RC1 and the “Inhibition Rifampicine” value was 97 % inhibition. Also, the “Log P (partition coefficient butanol/buffer)” value in data set [5] is −0.38.

For `CCOCCOCCOc1ccc(CCC[C@H](C(=O)O)N2CCN([C@@H](CO)C(=O)[O-])CCN([C@@H](CO)C(=O)[O-])CCN([C@@H](CO)C(=O)[O-])CC2)cc1.[Gd+3]` [Example 18, gadolinium (2S,2'S,2″'S)-2,2′,2″-{10-[(1R)-1-carboxy-4-{4-[2-(2-ethoxyethoxy)ethoxy]phenyl}butyl]-1,4,7,10-tetraazacyclododecane-1,4,7-triyl}tris(3-hydroxypropanoate)], the Uptake rat hepatocytes in data set [1] is 75 % of RC1. In addition, the entries for the “Inhibition Rifampicine” value (in data set [1]; at OATP1B1; on OATP1B3) were 91 % inhibition, 76 % inhibition and 96 % inhibition, respectively. For the same compound, in data set [2], the r1 human plasma is 7.7 L/mmol/s. This compound had a Solubility in data set [3] above 354 mM. In addition, the r1 water in data set [4] turned out to be 5.5 L/mmol/s. Also, the “Log P (partition coefficient butanol/buffer)” value in data set [5] was −1.11.

As for `CCOCCOCCOc1ccc(CCC[C@H](C(=O)O)N2CCN([C@H](CO)C(=O)[O-])CCN([C@H](CO)C(=O)[O-])CCN([C@H](CO)C(=O)[O-])CC2)cc1.[Gd+3]` [Example 19, gadolinium (2R,2′R,2″R)-2,2′,2″-{10-[(1R)-1-carboxy-4-{4-[2-(2-ethoxyethoxy)ethoxy]phenyl}butyl]-1,4,7,10-tetraazacyclododecane-1,4,7-triyl}tris(3-hydroxypropanoate)], in data set [1], the Uptake rat hepatocytes is on record as 92 % of RC1. Besides, the “Inhibition Rifampicine” value in data set [1] was determined as 92 % inhibition; at OATP1B1, 92 % inhibition; at OATP1B3, 96 % inhibition. Besides, in data set [2], the r1 human plasma was 9.0 L/mmol/s. In data set [3], the Solubility was above 410 mM. For the same compound, in data set [4], the r1 water came to 5.3 L/mmol/s. The “Log P (partition coefficient butanol/buffer)” value in data set [5] is recorded as −0.95.

On to `CCOCCOCCOc1ccc(CCC[C@@H](C(=O)O)N2CCN([C@H](CO)C(=O)[O-])CCN([C@H](CO)C(=O)[O-])CCN([C@H](CO)C(=O)[O-])CC2)cc1.[Gd+3]` [Example 20, gadolinium (2R,2′R,2″R)-2,2′,2″-{10-[(1S)-1-carboxy-4-{4-[2-(2-ethoxyethoxy)ethoxy]phenyl}butyl]-1,4,7,10-tetraazacyclododecane-1,4,7-triyl}tris(3-hydroxypropanoate)], for which the Uptake rat hepatocytes in data set [1] was 71 % of RC1. In addition, the “Inhibition Rifampicine” value was 91 % inhibition in data set [1], 87 % inhibition on OATP1B1 and 99 % inhibition on OATP1B3. This compound also showed a r1 human plasma in data set [2] of 9.8 L/mmol/s. The Solubility in data set [3] is above 381 mM. For the same compound, the r1 water in data set [4] was determined as 5.6 L/mmol/s. For the same compound, the “Log P (partition coefficient butanol/buffer)” value in data set [5] is −1.11.

With `CCOCCOCCOc1ccc(CC(C(=O)O)N2CCN(CC(=O)[O-])CCN(CC(=O)[O-])CCN(CC(=O)[O-])CC2)nc1.[Gd+3]` (centres unmarked) [Example 23, gadolinium 2,2′,2″-{10-[1-carboxy-2-{5-[2-(2-ethoxyethoxy)ethoxy]pyridin-2-yl}ethyl]-1,4,7,10-tetraazacyclododecane-1,4,7-triyl}triacetate], in data set [1], the Uptake rat hepatocytes is 17 % of RC1. Besides, the “Inhibition Rifampicine” value in data set [1] is listed as 73 % inhibition; at OATP1B1, 0 % inhibition; at OATP1B3, 71 % inhibition. In data set [2], this compound returned a r1 human plasma of 6.0 L/mmol/s. The Solubility in data set [3] is above 241 mM. In data set [4], this compound yielded a r1 water of 4.5 L/mmol/s. In data set [5], the “Log P (partition coefficient butanol/buffer)” value is recorded as −1.94.

On to `CCCOc1ccc(CCC(C(=O)O)N2CCN(CC(=O)[O-])CCN(CC(=O)[O-])CCN(CC(=O)[O-])CC2)cc1.[Gd+3]` (centres unmarked) [Example 24, gadolinium 2,2′,2″-{10-[1-carboxy-3-(4-propoxyphenyl)propyl]-1,4,7,10-tetraazacyclododecane-1,4,7-triyl}triacetate], for which, in data set [1], the Uptake rat hepatocytes is 40 % of RC1 and the “Inhibition Rifampicine” value was 96 % inhibition. In data set [2], the r1 human plasma stood at 8.8 L/mmol/s. In data set [3], the Solubility is above 261 mM. At OATP1B1, the “Uptake into OATP1B1-HEK 293 cells” value is 229 % of RC1 and the “Inhibition Rifampicine” value came to 87 % inhibition. In data set [4], the r1 water amounted to 4.1 L/mmol/s. Also, on OATP1B3, the “Uptake into OATP1B3-HEK 293 cells” value was 17 % of RC1 and the “Inhibition Rifampicine” value turned out to be 94 % inhibition. Besides, the “Log P (partition coefficient butanol/buffer)” value in data set [5] was −0.71.

In the case of `CCCC(C(=O)[O-])N1CCN(CC(=O)[O-])CCN(C(Cc2ccc(OCC)cc2)C(=O)O)CCN(CC(=O)[O-])CC1.[Gd+3]` (centres unmarked) [Example 29, gadolinium 2-{7-[1-carboxy-2-(4-ethoxyphenyl)ethyl]-4,10-bis(carboxylatomethyl)-1,4,7,10-tetraazacyclododecan-1-yl}pentanoate], in data set [1], the Uptake rat hepatocytes was 87 % of RC1 and the “Inhibition Rifampicine” value is 99 % inhibition. This compound also gave a r1 human plasma in data set [2] of 7.5 L/mmol/s. Further, the Solubility in data set [3] was above 305 mM. Besides, on OATP1B1, the “Uptake into OATP1B1-HEK 293 cells” value is listed as 493 % of RC1 and the “Inhibition Rifampicine” value stood at 96 % inhibition. The compound further returned a r1 water in data set [4] of 4.4 L/mmol/s. Further, at OATP1B3, the “Uptake into OATP1B3-HEK 293 cells” value was 75 % of RC1 and the “Inhibition Rifampicine” value was 99 % inhibition. Further, in data set [5], the “Log P (partition coefficient butanol/buffer)” value is on record as −0.53.
